Data as given in patent US8569327B2, “Phenanthroindolizidine derivative and NFκB inhibitor containing same as active ingredient” (Kabushiki Kaisha Yakult Honsha, priority 2008, dated 2013).
Converted amounts (≈) assume the structure as drawn. Where two headings read alike, the source gives them in different places.

How the values were obtained:
[1] = tested on: human non-small cell lung cancer A549 cells; test: Inhibitory action on the proliferation of A549 cells; assay type: cell-based; conditions: 96 hours, TetraColor ONE; for IC50: Homo sapiens, A549
Protocol: (§1) The action of the phenanthroindolizidine alkaloid compound of the present invention on the proliferation of human colon cancer SW480 cells, HT-29 cells, and human non-small cell lung cancer A549 cells was studied. The SW480 cells were suspended in a 10% FBS/RPMI1640 and then seeded in a 96-well microplate, followed by culturing in 5% CO2 at 37° C. (2000 cells/well). The A549 cells and the HT-29 cells were each suspended in a DMEM medium containing 10% FBS, 100 U/mL penicillin, and 100 μg/mL streptomycin (10% FBS/DMEM) and a DMEM F-12 HAM medium containing 10% FBS, 100 U/mL penicillin, and 100 μg/mL streptomycin (10% FBS/DMEM F12 HAM), and then seeded in 96-well microplates, followed by culturing in 5% CO2 at 37° C. (1000 cells/well). After an overnight culture, the compound of the present invention was added, followed by further culturing for 48 hours (SW480 cells) and 96 hours (A549 cells and HT-29 cells). After culturing, the number of viable cells was counted using TetraColor ONE (Seikagaku Corporation) in accordance with the attached operating procedure. The results were expressed as the concentration of a test compound needed for 50% inhibition of the proliferation of the cells (IC50).

NFκB = test: Inhibitory action on the NFκB activity, luciferase assay in SW480/NRE-Luc cells; assay type: cell-based, human; conditions: for IC50: Homo sapiens
From the text: (§2) The action of the phenanthroindolizidine alkaloid compound of the present invention on the NFκB activity was studied using a luciferase assay. Human colon cancer SW480 cells were transfected with pNFκB-Luc Plasmid (Stratagene), which is a reporter vector in which a five-time tandem repeat of the NFκB responsive element (NRE) is integrated into the upstream of the luciferase gene, using Lipofectamine 2000 (Invitrogen Corporation) in accordance with the attached operating procedure. Subsequently, the cells were cultured in an RPMI1640 medium containing 10% FBS, 100 U/mL penicillin, 100 μg/mL streptomycin, and 0.5 mg/mL G418 to produce SW480 cells having the luciferase gene, the expression of which is regulated by NRE, stably introduced therein (SW480/NRE-Luc cells). Likewise, SW480 cells were transfected with pGL3-Control Vector (Promega Corporation), which is a reporter vector in which the SV40 promoter is integrated into the upstream of the luciferase gene, to produce SW480 cells having the luciferase gene, the expression of which is regulated by the SV40 promoter, stably introduced therein (SW480/SV40-Luc cells). The SW480/NRE-Luc cells or the SW480/SV40-Luc cells were suspended in an RPMI1640 medium containing 10% FBS, 100 U/mL penicillin, and 100 μg/mL streptomycin (10% FBS/RPMI1640), and then seeded in a 96-well microplate, followed by culturing under conditions of 5% CO2 and at 37° C. (5000 cells/well). After an overnight culture, the compound of the present invention was added, followed by culturing for one hour. Further, 50 ng/mL TNFα (Sigma-Aldrich Corporation) was added, followed by culturing for four hours. Subsequently, a Steady-Glo Luciferase Assay reagent (Promega Corporation) was added, and the luminescent intensity was detected by SpectraMax M5e (Molecular Devices, Inc.) to measure the intracellular luciferase activity. It is to be noted that the action of the compound of the present invention on the NFκB activity or the SV40 promoter activity was shown as IC50 values (the concentration of a test compound needed for 50% inhibition of the induction of the luciferase expression).

[2] = tested on: human colon cancer HT-29 cells; test: Inhibitory action on the proliferation of HT-29 cells; assay type: cell-based; conditions: 96 hours, TetraColor ONE; for IC50: Homo sapiens, HT-29
Protocol: as §1

SV40 promoter = SV40 promoter activity, luciferase assay in SW480/SV40-Luc cells; assay type: cell-based, human; conditions: for IC50: Homo sapiens
From the text: as §2

[3] = tested on: human colon cancer SW480 cells; test: Inhibitory action on the proliferation of SW480 cells; assay type: cell-based; conditions: 48 hours, TetraColor ONE; for IC50: Homo sapiens, SW480
Protocol: as §1

[4] = SW480, read-out: NFκB inhibitory activity IC50
[5] = SW480, read-out: SV40 promoter inhibitory activity IC50
[6] = SW480/NRE-Luc cells, compound 1 h then 50 ng/mL TNFα 4 h, luciferase
[7] = SW480/SV40-Luc cells, luciferase

IC50 (NFκB; SW480/NRE-Luc cells, compound 1 h then 50 ng/mL TNFα 4 h, luciferase, read-out: NFκB inhibitory activity IC50) [ng/mL] | IC50 (SV40 promoter; SW480/SV40-Luc cells, luciferase, read-out: SV40 promoter inhibitory activity IC50) [ng/mL] | SMILES | IC50 [1] [ng/mL] | IC50 (NFκB; [4]) [ng/mL] | IC50 [2] [ng/mL] | IC50 (SV40 promoter; [5]) [ng/mL] | IC50 [3] [ng/mL] | A549 proliferation inhibitory action IC50 [1] [ng/mL] | NFκB inhibitory activity IC50 (NFκB; [6]) [ng/mL] | HT-29 proliferation inhibitory action IC50 [2] [ng/mL] | SV40 promoter inhibitory activity IC50 (SV40 promoter; [7]) [ng/mL] | SW480 proliferation inhibitory action IC50 [3] [ng/mL]
 |  | COc1cc2c3c(c4ccccc4c2cc1OC)[C@H](O)[C@@H]1CCCN1C3.Cl [Compound 1, (12aS,13S)-6,7-dimethoxy-9,10,11,12,12a,13-hexahydro-9a-aza-cyclopenta[b]triphenylene-13-ol hydrochloride] | 2.6 | 2.7 | 3.7 | > 1000 | 5.1 |  |  |  |  | 
 |  | CCc1ccc2c3c(c4cc(OC)c(OC)cc4c2c1)CN1CCC[C@H]1[C@H]3O.Cl [Compound 3, (12aS,13S)-3-ethyl-6,7-dimethoxy-9,10,11,12,12a,13-hexahydro-9a-aza-cyclopenta[b]triphenylene-13-ol hydrochloride] | 24.5 | 105 | 50.8 | > 10000 | 219 |  |  |  |  | 
 |  | COc1cc2c3c(c4ccc(F)cc4c2cc1OC)[C@H](O)[C@@H]1CCCN1C3.Cl [Compound 5, (12aS,13S)-3-fluoro-6,7-dimethoxy-9,10,11,12,12a,13-hexahydro-9a-aza-cyclopenta[b]triphenylene-13-ol hydrochloride] | 4.1 | 20.7 | 7.2 | > 1000 | 39.2 |  |  |  |  | 
 |  | COc1cc2c3c(c4ccc(OC(=O)C(C)C)cc4c2cc1OC)[C@H](O)[C@@H]1CCCN1C3.Cl [Compound 9, isobutyric acid(12aS,13S)-13-hydroxy-6,7-dimethoxy-9,10,11,12,12a,13-hexahydro-9a-aza-cyclopenta[b]triphenylene-3-yl ester hydrochloride] |  |  |  |  |  | 0.57 | 0.26 | 0.38 | >100 | 0.36
 |  | COc1cc2c3c(c4ccc(OC(=O)C(C)(C)C)cc4c2cc1OC)[C@H](O)[C@@H]1CCCN1C3.Cl [Compound 10, 2,2-dimethyl-propionic acid(12aS,13S)-13-hydroxy-6,7-dimethoxy-9,10,11,12,12a,13-hexahydro-9a-aza-cyclopenta[b]triphenylene-3-yl ester hydrochloride] |  |  |  |  |  | 0.14 | 0.49 | 0.47 | >100 | 0.73
 |  | COc1cc2c3c(c4ccc(OC(=O)c5cccnc5)cc4c2cc1OC)[C@H](O)[C@@H]1CCCN1C3.Cl [Compound 11, nicotinic acid(12aS,13S)-13-hydroxy-6,7-dimethoxy-9,10,11,12,12a,13-hexahydro-9a-aza-cyclopenta[b]triphenylene-3-yl ester hydrochloride] |  |  |  |  |  | 0.028 | 0.48 | 0.44 | >10 | 0.50
 |  | COc1cc2c3c(c4ccc(OC(=O)c5ccncc5)cc4c2cc1OC)[C@H](O)[C@@H]1CCCN1C3.Cl [Compound 12, isonicotinic acid(12aS,13S)-13-hydroxy-6,7-dimethoxy-9,10,11,12,12a,13-hexahydro-9a-aza-cyclopenta[b]triphenylene-3-yl ester hydrochloride] |  |  |  |  |  | 0.19 | 0.33 | 0.62 | >100 | 0.51
 |  | CCC(=O)Oc1ccc2c3c(c4cc(OC)c(OC)cc4c2c1)CN1CCC[C@H]1[C@H]3O.Cl [Compound 15, propionic acid(12aS,13S)-13-hydroxy-6,7-dimethoxy-9,10,11,12,12a,13-hexahydro-9a-aza-cyclopenta[b]triphenylene-3-yl ester hydrochloride] |  |  |  |  |  | 0.35 | 0.20 | 0.62 | >100 | 0.39
 |  | COc1cc2c3c(c4ccc(NC(=O)OCC(C)C)cc4c2cc1OC)[C@H](O)[C@@H]1CCCN1C3.Cl [Compound 18, ((12aS,13S)-13-hydroxy-6,7-dimethoxy-9,10,11,12,12a,13-hexahydro-9a-aza-cyclopenta[b]triphenylene-3-yl)-carbamic acid isobutyl ester hydrochloride] | 16.2 | 15.5 | 18.1 | > 1000 | 27.6 |  |  |  |  | 
 |  | COc1cc2c3c(c4ccc(OC(=O)c5ccoc5)cc4c2cc1OC)[C@H](O)[C@@H]1CCCN1C3.Cl [Compound 22, furan-3-carboxylic acid(12aS,13S)-13-hydroxy-6,7-dimethoxy-9,10,11,12,12a,13-hexahydro-9a-aza-cyclopenta[b]triphenylene-3-yl ester hydrochloride] |  |  |  |  |  | 1.1 | 1.7 | 1.9 | >1000 | 2.8
 |  | COc1cc2c3c(c4ccc(OC(=O)c5ccsc5)cc4c2cc1OC)[C@H](O)[C@@H]1CCCN1C3.Cl [Compound 23, thiophene-3-carboxylic acid(12aS,13S)-13-hydroxy-6,7-dimethoxy-9,10,11,12,12a,13-hexahydro-9a-aza-cyclopenta[b]triphenylene-3-yl ester hydrochloride] |  |  |  |  |  | 0.76 | 4.1 | 1.4 | >100 | 3.1
 |  | COc1cc2c3c(c4ccc(OC(=O)CCCCCCC(=O)Oc5ccc6c7c(c8cc(OC)c(OC)cc8c6c5)CN5CCC[C@H]5[C@H]7O)cc4c2cc1OC)[C@H](O)[C@@H]1CCCN1C3.Cl [Compound 24, octanedionic acid(9S,12S)-13-hydroxy-6,7-dimethoxy-9,10,11,12,12a,13-hexahydro-9a-aza-cyclopenta[b]triphenylene-3-yl ester(12aS,13S)-13-hydroxy-6,7-dimethoxy-9,10,11,12,12a,13-hexahydro-9a-aza-cyclopenta[b]triphenylene-3-yl ester hydrochloride] |  |  |  |  |  | 0.18 | 0.90 | 0.24 | >100 | 0.77
 |  | COc1cc2c3c(c4ccc(N)cc4c2cc1OC)[C@H](O)[C@@H]1CCCN1C3.Cl [Compound 25, (12aS,13S)-3-amino-6,7-dimethoxy-9,10,11,12,12a,13-hexahydro-9a-aza-cyclopenta[b]triphenylene-13-ol hydrochloride] | 0.4 | 1.1 | 0.28 | > 100 | 2.3 |  |  |  |  | 
2400 (≈ 16.3 µM) | > 10000 | S=C(S)N1CCCC1 [PDTC, pyrrolidine dithiocarbamate, reference compound] |  |  |  |  |  |  |  |  |  | 
